Assay results reported in patent publication US4551534A, “Aralkyl or aryloxyalkyl 1,7-naphthyridine-3-carboxylic acid esters” (American Home Products Corporation, priority 1984, dated 1985).

Key:
[1] = test system: rabbit aortic smooth muscle; assay: Ca+2 antagonism: relaxation of KCl-depolarized rabbit aortic smooth muscle strips; settings: Oryctolagus cuniculus, 20 min; 10^-5 M; 100 mM KCl contraction; mean of two experiments 20 minutes after addition; read-out: percent relaxation (P.R.)
Protocol: The composition of PSS was as follows (mM): NaCl 112, KCl 5, NaHCO3 25, KH2 PO4 1, MgSO4 1.2, CaCL2 2.5, dextrose 10. The lower end of each tissue strip was attached to a fixed post and the upper end to a Statham UC-4 transducer. Changes in force development were recorded on a Beckman Dynograph Polygraphic Recorder.
Following equilibration, the muscles were contracted in a depolarizing solution of PSS in which 100 mM KCl was substituted for an equimolar concentration of NaCl. Following attainment of steady-state isometric force (20 min.), the test compound was added to afford a final concentration of 1×10^-5 M. The inhibitory effect, expressed as percent relaxation, was determined from the mean of two experiments twenty minutes after the addition of the compound being tested.
(§1) The following examples illustrate the preparation of a representative number of compounds of this invention. After each example, the Ca^+2 antagonist activity of the compound is presented in terms of percent relaxation (P.R.) at 10^-5 M concentration unless indicated otherwise. Similarly, the antihypertensive activity is reported in terms of millimeters mercury (mmHg) blood pressure (B.P.) reduction at the stated time post 50 mg/kg oral dosing or other dosing as indicated.

[2] = test system: spontaneously hypertensive rats; assay: Hypotensive in vivo effect: systolic blood pressure of spontaneously hypertensive rats; set-up: species or system rat; settings: 50 mg/kg oral, group of 4 spontaneously hypertensive rats
Protocol: The hypotensive in vivo effect of the compounds of this invention was determined by measuring changes in the systolic blood pressure of spontaneously hypertensive rats with a Decker Caudal Plethysmograph. The compound being tested was administered to a group of 4 rats and their systolic pressure was determined prior to and at 1.5 and 4 hours after compound administration. Initial testing was done by oral administration of the compound at a dose of 50 mg/kg body weight. Results (mmHg) are expressed as decreases in systolic blood pressure.
as §1

[3] = test system: isolated paced intact rabbit atria; assay: Cardiac depressant (negative inotropic) effects in isolated paced intact rabbit atria; settings: 3 Hz, 30° C., cumulative 10^-9 M to 10^-5 M
Protocol: (§2) The potential for detrimental cardiac depressant (negative inotropic) effects of the compounds of this invention was assessed in isolated paced intact rabbit atria. […] Muscles (N=5-9/compound) were stimulated at a frequency of 3 Hz with a WPI stimulator for a 60 minute equilibration period. Changes in isometric force were recorded as described for the aortic smooth muscle experiments,supra. […]

[4] = test system: spontaneously hypertensive rats; assay: Hypotensive in vivo effect: systolic blood pressure of spontaneously hypertensive rats; set-up: species or system rat; settings: 50 mg/kg oral
[5] = Cardiac depressant (negative inotropic) effects in isolated paced intact rabbit atria; settings: isolated paced atria, 10^-5 M, read-out: inhibition (of developed isometric force) at the highest concentration
Protocol: as §2

SMILES	IC25 (concentration which produces 25% inhibition of isometric force) [3] [µM]	inhibition at 10 µM [5] [%]	inhibition at 10 µM [1] [%]	blood pressure (B.P.) reduction at 1.5 hours [2] [mmHg]	blood pressure (B.P.) reduction at 4 hours [2] [mmHg]	blood pressure (B.P.) reduction at 24 hours [4] [mmHg]
COC(=O)C1=C(C)NC2=C(C(=O)CN(CC(O)COc3cccc(C)c3C)C2)C1c1c(F)c(F)c(F)c(F)c1F (stereo not shown) [Example 2, 7-[3-(2,3-Dimethylphenoxy)-2-hydroxypropyl]-1,4,5,6,7,8-hexahydro-2-methyl-5-oxo-4-(pentafluorophenyl)-1,7-naphthyridine-3-carboxylic acid methyl ester]	5		65	-56	-86	-28
COC(=O)C1=C(C)NC2=C(C(=O)CN(CC(O)COc3cccc(C)c3C)C2)C1c1c(F)c(F)cc(F)c1F (stereo not shown) [Example 3]	6		63	-25	-56	
COC(=O)C1=C(C)NC2=C(C(=O)CN(CC(O)COc3ccccc3)C2)C1c1c(F)c(F)c(F)c(F)c1F (stereo not shown) [Example 6, 1,4,5,6,7,8-Hexahydro-2-methyl-5-oxo-4-(pentafluorophenyl)-7-(3-phenoxy-2-hydroxypropyl)-1,7-naphthyridine-3-carboxylic acid methyl ester]	4.5		67	-54	-80	
COC(=O)C1=C(C)NC2=C(C(=O)CN(CC(O)COc3ccc(OC)cc3)C2)C1c1c(F)c(F)c(F)c(F)c1F (stereo not shown) [Example 7, 1,4,5,6,7,8-Hexahydro-7-[3-(4-methoxyphenoxy)-2-hydroxypropyl]-2-methyl-5-oxo-4-(pentafluorophenyl)-1,7-naphthyridine-3-carboxylic acid methyl ester]	5		73	-31	-56	
COC(=O)C1=C(C)NC2=C(C(=O)CN(CCCOc3ccccc3)C2)C1c1c(F)c(F)c(F)c(F)c1F (stereo not shown) [Example 9, 1,4,5,6,7,8-Hexahydro-2-methyl-5-oxo-4-(pentafluorophenyl)-7-(3-phenoxypropyl)-1,7-naphthyridine-3-carboxylic acid methyl ester]	3.5		61	-43	-41	
COC(=O)C1=C(C)NC2=C(C(=O)CN(CC(O)CCc3ccccc3)C2)C1c1c(F)c(F)c(F)c(F)c1F (stereo not shown) [Example 10, 1,4,5,6,7,8-Hexahydro-7-(2-hydroxy-4-phenylbutyl)-2-methyl-5-oxo-4-(pentafluorophenyl)-1,7-naphthyridine-3-carboxylic acid methyl ester]	3		80.5	-41	-51	
COC(=O)C1=C(C)NC2=C(C(=O)CN(CC(O)c3ccccc3)C2)C1c1c(F)c(F)c(F)c(F)c1F (stereo not shown) [Example 11, 1,4,5,6,7,8-Hexahydro-7-(2-hydroxy-2-phenylethyl)-2-methyl-5-oxo-4-pentafluorophenyl-1,7-naphthyridine-3-carboxylic acid methyl ester]			66.5	-58	-73	
COc1ccc(CCN(C)CCCC(C#N)(c2ccc(OC)c(OC)c2)C(C)C)cc1OC (stereo not shown) [Verapamil, reference compound]	0.06					
COC(=O)C1=C(C)NC(C)=C(C(=O)OC)C1c1ccccc1[N+](=O)[O-] [nifedipine, reference compound]	0.05					
CCOC(=O)C1=C(C)NC(C)=C(C(=O)OC)C1c1cccc([N+](=O)[O-])c1 (stereo not shown) [nitrendipine, reference compound]	0.35					

Now from value to molecule, other results behind:

IC25 (concentration which produces 25% inhibition of isometric force) [3] [µM]	inhibition at 10 µM [5] [%]	SMILES	inhibition at 10 µM [1] [%]	blood pressure (B.P.) reduction at 1.5 hours [2] [mmHg]	blood pressure (B.P.) reduction at 4 hours [2] [mmHg]	blood pressure (B.P.) reduction at 24 hours [4] [mmHg]
> 10		COC(=O)C1=C(C)NC2=C(C(=O)CN(CC(O)COc3cccc(C)c3C)C2)C1c1ccccc1C (stereo not shown) [Example 1, 7-[3-(2,3-Dimethylphenoxy)-2-hydroxypropyl]-1,4,5,6,7,8-hexahydro-2-methyl-4-(2-methylphenyl)-5-oxo-1,7-naphthyridine-3-carboxylic acid methyl ester]	91	-30	-34	
> 10		COC(=O)C1=C(C)NC2=C(C(=O)CN(CC(O)COc3cccc(C)c3C)C2)C1c1c(F)ccc(Cl)c1Cl (stereo not shown) [Example 4, 4-(2,3-Dichloro-6-fluorophenyl)-7-[3-(2,3-dimethylphenoxy)-2-hydroxypropyl]1,4,5,6,7,8-hexahydro-2-methyl-5-oxo-1,7-naphthyridine-3-carboxylic acid methyl ester]	42	-56	-72	
> 10		COC(=O)C1=C(C)NC2=C(C(=O)CN(CC(O)COc3cccc(Cl)c3Cl)C2)C1c1ccccc1C (stereo not shown) [Example 5, 7-[3-(2,3-Dichlorophenoxy)-2-hydroxypropyl]-1,4,5,6,7,8-hexahydro-2-methyl-4-(2-methylphenyl)-5-oxo-1,7-naphthyridine-3-carboxylic acid methyl ester]	62	-23	-25	
7		COC(=O)C1=C(C)NC2=C(C(=O)CN(CC(O)COc3cccc(C)c3C)C2)C1c1cccc(Cl)c1Cl (stereo not shown) [Example 8, 4-(2,3-Dichlorophenyl)-7-[3-(2,3-dimethylphenoxy)-2-hydroxypropyl]-1,4,5,6,7,8-hexahydro-2-methyl-5-oxo-1,7-naphthyridine-3-carboxylic acid methyl ester]	50	-16	-41	
	< 20	NCCCCCCNS(=O)(=O)c1cccc2c(Cl)cccc12 [Example W-7, reference compound]				
0.8		CCOC(=O)C1=C(C)NC(C)=C(C(=O)OC)C1c1cccc(Cl)c1Cl (stereo not shown) [felodipine, reference compound]				
